# Results as given in patent US11986532B2 (Arvinas Operations, Inc., priority 2021, dated 2024).
# Read-outs that look alike come from different tables or passages of the source.
# Target: T1, BCL6 (Homo sapiens, UniProt P41182)
# T1 construct: endogenous in cells; host or cells: T47D breast cancer epithelial cells
# Experiment: Immunofluorescence protocol for high content imaging of BCL6 (degradation) in T47D cells, 3 days compound treatment
# Format: cell-based
# Conditions: for DC50: read-out: Mean DC50 (nM)* category; for Dmax: read-out: Mean Dmax (%)** category
# Summary of the method: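 For degradation, compound series (3-fold, 11 points, top 0.1 or 1 μM final) were added to adherent T47D cultures for 3 days. BCL6 immunostaining used a rabbit antibody at 1:300 and an Alexa-488 secondary, with imaging at 10× magnification.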
# [1] = T47D cells, 3 days compound treatment
SMILES,DC50 [1] [nM],Dmax [1] [%],Dmax (T47D) [%],DC50 [nM]
"CNC(=O)COc1cc2cc(Nc3nc(N4CCCCC4)ncc3Cl)ccc2n(CCOc2ccc3c(c2)C(=O)N(C2CCC(=O)NC2=O)C3=O)c1=O (stereo not drawn) [Compound 29, 2-[(6-{[5-chloro-2-(piperidin-1-yl)pyrimidin-4-yl]amino}-1-(2-{[2-(2,6-dioxopiperidin-3-yl)-1,3-dioxo-2,3-dihydro-1H-isoindol-5-yl]oxy}ethyl)-2-oxo-1,2-dihydroquinolin-3-yl)oxy]-N-methylacetamide]",10 to 50,50 to 70,,
"CNC(=O)COc1cc2cc(Nc3nc(N4CCC(F)(CN5CC(N6CCC(c7ccc8c(c7F)CN(C7CCC(=O)NC7=O)C8=O)CC6)C5)CC4)ncc3Cl)ccc2n(C(C)C)c1=O (stereo not drawn) [Compound 285, 2-({6-[(5-chloro-2-{4-[(3-{4-[2-(2,6-dioxopiperidin-3-yl)-4-fluoro-1-oxo-2,3-dihydro-1H-isoindol-5-yl]piperidin-1-yl}azetidin-1-yl)methyl]-4-fluoropiperidin-1-yl}pyrimidin-4-yl)amino]-2-oxo-1-(propan-2-yl)-1,2-dihydroquinolin-3-yl}oxy)-N-methylacetamide]",,,≥ 70,< 10
"CC[C@@H]1CN([C@H]2C[C@H](OC3CCN(c4ncc(Cl)c(Nc5ccc6c(c5)cc(OCC(=O)NC)c(=O)n6C(C)C)n4)CC3)C2)CCN1c1ccc2c(c1C)C(=O)N(C1CCC(=O)NC1=O)C2=O (stereo partly drawn) [Compound 287, 2-({6-[(5-chloro-2-{4-[(1r,3r)-3-[(3R)-4-[2-(2,6-dioxopiperidin-3-yl)-4-methyl-1,3-dioxo-2,3-dihydro-1H-isoindol-5-yl]-3-ethylpiperazin-1-yl]cyclobutoxy]piperidin-1-yl}pyrimidin-4-yl)amino]-2-oxo-1-(propan-2-yl)-1,2-dihydroquinolin-3-yl}oxy)-N-methylacetamide]",,,≥ 70,< 10
CNC(=O)COc1cc2cc(Nc3nc(N4CCC(CN5CCC6(CC5)CC5(CN(c7ccc8c(c7F)CN(C7CCC(=O)NC7=O)C8=O)C5)C6)CC4)ncc3Cl)ccc2n(C(C)C)c1=O (stereo not drawn) [Compound 427],,,≥ 70,< 10
"CNC(=O)COc1cc2cc(Nc3nc(N4CCC(O[C@H]5C[C@H](N6CCC(c7cc8c(cc7F)C(=O)N(C7CCC(=O)NC7=O)C8)CC6)C5)CC4)ncc3Cl)ccc2n(C(C)C)c1=O (stereo partly drawn) [Compound 79, 2-({6-[(5-chloro-2-{4-[(1r,3r)-3-{4-[2-(2,6-dioxopiperidin-3-yl)-6-fluoro-1-oxo-2,3-dihydro-1H-isoindol-5-yl]piperidin-1-yl}cyclobutoxy]piperidin-1-yl}pyrimidin-4-yl)amino]-2-oxo-1-(propan-2-yl)-1,2-dihydroquinolin-3-yl}oxy)-N-methylacetamide]",< 10,50 to 70,,
"CNC(=O)COc1cc2cc(Nc3nc(N4CCC(CN5CCC6(CC5)CC5(CN(c7cccc8c7C(=O)N(C7CCC(=O)NC7=O)C8=O)C5)C6)CC4)ncc3Cl)ccc2n(C(C)C)c1=O (stereo not drawn) [Compound 374, 2-{[6-({5-chloro-2-[4-({2-[2-(2,6-dioxopiperidin-3-yl)-1,3-dioxo-2,3-dihydro-1H-isoindol-4-yl]-2,9-diazadispiro[3.1.5^6.1^4]dodecan-9-yl}methyl)piperidin-1-yl]pyrimidin-4-yl}amino)-2-oxo-1-(propan-2-yl)-1,2-dihydroquinolin-3-yl]oxy}-N-methylacetamide]",,,≥ 70,< 10
"CNC(=O)COc1cc2cc(Nc3nc(N4CCC(O[C@H]5C[C@H](N6CCC(c7ccc8c(c7)C(=O)N(C7CCC(=O)NC7=O)C8=O)C6)C5)CC4)ncc3Cl)ccc2n(C(C)C)c1=O (stereo partly drawn) [Compound 256, 2-({6-[(5-chloro-2-{4-[(1r,3r)-3-{3-[2-(2,6-dioxopiperidin-3-yl)-1,3-dioxo-2,3-dihydro-1H-isoindol-5-yl]pyrrolidin-1-yl}cyclobutoxy]piperidin-1-yl}pyrimidin-4-yl)amino]-2-oxo-1-(propan-2-yl)-1,2-dihydroquinolin-3-yl}oxy)-N-methylacetamide]",,,50 to 70,10 to 50
"CNC(=O)COc1cc2cc(Nc3nc(N4CCC(O[C@H]5C[C@H](N6CC[C@H](c7ccc8c(c7F)CN(C7CCC(=O)NC7=O)C8=O)C(C)(C)C6)C5)CC4)ncc3Cl)ccc2n(C(C)C)c1=O (stereo partly drawn) [Compound 431, 2-({6-[(5-chloro-2-{4-[(1r,3r)-3-[(4S)-4-[2-(2,6-dioxopiperidin-3-yl)-4-fluoro-1-oxo-2,3-dihydro-1H-isoindol-5-yl]-3,3-dimethylpiperidin-1-yl]cyclobutoxy]piperidin-1-yl}pyrimidin-4-yl)amino]-2-oxo-1-(propan-2-yl)-1,2-dihydroquinolin-3-yl}oxy)-N-methylacetamide]",,,≥ 70,< 10
"CNC(=O)COc1cc2cc(Nc3nc(N4CCC(N5CCC6(C5)CN(C5CCN(c7ccc8c(c7)CN(C7CCC(=O)NC7=O)C8=O)CC5)C6)CC4)ncc3Cl)ccc2n(C(C)C)c1=O (stereo not drawn) [Compound 235, 2-{[6-({5-chloro-2-[4-(2-{1-[2-(2,6-dioxopiperidin-3-yl)-1-oxo-2,3-dihydro-1H-isoindol-5-yl]piperidin-4-yl}-2,6-diazaspiro[3.4]octan-6-yl)piperidin-1-yl]pyrimidin-4-yl}amino)-2-oxo-1-(propan-2-yl)-1,2-dihydroquinolin-3-yl]oxy}-N-methylacetamide]",,,50 to 70,< 10
"CNC(=O)COc1cc2cc(Nc3nc(N4CCC(O[C@H]5C[C@H](N6CCC7(CN(c8ccc9c(c8F)CN(C8CCC(=O)NC8=O)C9=O)C7)C6)C5)CC4)ncc3Cl)ccc2n(C(C)C)c1=O (stereo partly drawn) [Compound 405, 2-({6-[(5-chloro-2-{4-[(1r,3r)-3-{2-[2-(2,6-dioxopiperidin-3-yl)-4-fluoro-1-oxo-2,3-dihydro-1H-isoindol-5-yl]-2,6-diazaspiro[3.4]octan-6-yl}cyclobutoxy]piperidin-1-yl}pyrimidin-4-yl)amino]-2-oxo-1-(propan-2-yl)-1,2-dihydroquinolin-3-yl}oxy)-N-methylacetamide]",,,≥ 70,< 10

# Continued, in another order:
DC50 [1] [nM],Dmax [1] [%],SMILES,Dmax (T47D) [%],DC50 [nM]
< 10,< 50,"CNC(=O)COc1cc2cc(Nc3nc(N4CCN(C(C)(C)C5CCN(c6ccc7c(c6OC)CN(C6CCC(=O)NC6=O)C7=O)CC5)CC4)ncc3Cl)ccc2n(C(C)C)c1=O (stereo not drawn) [Compound 78, 2-{[6-({5-chloro-2-[4-(2-{1-[2-(2,6-dioxopiperidin-3-yl)-4-methoxy-1-oxo-2,3-dihydro-1H-isoindol-5-yl]piperidin-4-yl}propan-2-yl)piperazin-1-yl]pyrimidin-4-yl}amino)-2-oxo-1-(propan-2-yl)-1,2-dihydroquinolin-3-yl]oxy}-N-methylacetamide]",,
< 10,50 to 70,"CNC(=O)COc1cc2cc(Nc3nc(N4CCC(CN5CC6(CCN(c7ccc8c(c7)CN(C7CCC(=O)NC7=O)C8=O)CC6(F)F)C5)CC4)ncc3Cl)ccc2n(C(C)C)c1=O (stereo not drawn) [Compound 136, 2-{[6-({5-chloro-2-[4-({7-[2-(2,6-dioxopiperidin-3-yl)-1-oxo-2,3-dihydro-1H-isoindol-5-yl]-5,5-difluoro-2,7-diazaspiro[3.5]nonan-2-yl}methyl)piperidin-1-yl]pyrimidin-4-yl}amino)-2-oxo-1-(propan-2-yl)-1,2-dihydroquinolin-3-yl]oxy}-N-methylacetamide]",,
